Source: US8975406B2, “Compound useful for the treatment of degenerative and inflammatory diseases” (Galapagos N.V., priority 2011, dated 2015)

Tests used:
Assay type in all cases: biochemical
[1] = molecular target: T1, Recombinant human JAK2 catalytic domain (Homo sapiens, UniProt O60674); experiment: JAK2 assay polyGT substrate; conditions: 33P-gamma-ATP filter assay, 1 μM ATP
T1 construct: catalytic domain (amino acids 808-1132; catalog number PV4210); GST; purchased Invitrogen PV4210
Procedure: Recombinant human JAK2 catalytic domain (amino acids 808-1132; catalog number PV4210) was purchased from Invitrogen. 0.05 mU of JAK2 was incubated with 2.5 μg polyGT substrate (Sigma catalog number P0275) in kinase reaction buffer (10 mM MOPS pH 7.5, 0.5 mM EDTA, 0.01% Brij-35, 1 mM DTT, 15 mM MgAc, 1 μM non-radioactive ATP, 0.25 μCi ^33P-gamma-ATP (Perkin Elmer, catalog number NEG602K001MC) final concentrations) with or without 5 μL containing test compound or vehicle (DMSO, 1% final concentration), in a total volume of 25 μL, in a polypropylene 96-well plate (Greiner, V-bottom). After 90 min at 30° C., reactions were stopped by adding of 25 μL/well of 150 mM phosphoric acid. All of the terminated kinase reaction was transferred to prewashed (75 mM phosphoric acid) 96 well filter plates (Perkin Elmer catalog number 6005177) using a cell harvester (Perkin Elmer). Plates were washed 6 times with 300 μL per well of a 75 mM phosphoric acid solution and the bottom of the plates was sealed. 40 μL/well of Microscint-20 was added, the top of the plates was sealed and readout was performed using the Topcount (Perkin Elmer). Kinase activity was calculated by subtracting counts per min (cpm) obtained in the presence of a positive control inhibitor (10 μM staurosporine) from cpm obtained in the presence of vehicle. The ability of a test compound to inhibit this activity was determined as: Percentage inhibition=((cpm determined for sample with test compound present−cpm determined for sample with positive control inhibitor)divided by(cpm determined in the presence of vehicle−cpm determined for sample with positive control inhibitor))*100.
(§1) Dose dilution series were prepared for the compounds enabling the testing of dose-response effects in the JAK2 assay and the calculation of the IC50 for each compound. Each compound was routinely tested at concentration of 20 μM followed by a ⅓ serial dilution, 8 points (20 μM-6.67 μM-2.22 μM-740 nM-247 nM-82 nM-27 nM-9 nM) in a final concentration of 1% DMSO. When potency of compound series increased, more dilutions were prepared and/or the top concentration was lowered (e.g. 5 μM, 1 μM).

[2] = molecular target: T2, Recombinant human JAK1 catalytic domain (Homo sapiens, UniProt P23458); experiment: JAK1 assay polyGT substrate; conditions: 33P-gamma-ATP filter assay, 2 μM ATP
T2 construct: catalytic domain (amino acids 866-1154; catalog number PV4774); purchased Invitrogen PV4774
Procedure: Recombinant human JAK1 catalytic domain (amino acids 866-1154; catalog number PV4774) was purchased from Invitrogen. 25 ng of JAK1 was incubated with 6.25 μg polyGT substrate (Sigma catalog number P0275) in kinase reaction buffer (15 mM Hepes pH7.5, 0.01% Tween20, 10 mM MgCl2, 2 μM non-radioactive ATP, 0.25 μCi ^33P-gamma-ATP (Perkin Elmer, catalog number NEG602K001MC) final concentrations) with or without 5 μL containing test compound or vehicle (DMSO, 1% final concentration), in a total volume of 25 μL, in a polypropylene 96-well plate (Greiner, V-bottom). After 75 min at 30° C., reactions were stopped by adding of 25 μL/well of 150 mM phosphoric acid. All of the terminated kinase reaction was transferred to prewashed (75 mM phosphoric acid) 96 well filter plates (Perkin Elmer catalog number 6005177) using a cell harvester (Perkin Elmer). Plates were washed 6 times with 300 μL per well of a 75 mM phosphoric acid solution and the bottom of the plates was sealed. 40 μL/well of Microscint-20 was added, the top of the plates was sealed and readout was performed using the Topcount (Perkin Elmer). Kinase activity was calculated by subtracting counts per min (cpm) obtained in the presence of a positive control inhibitor (10 μM staurosporine) from cpm obtained in the presence of vehicle. The ability of a test compound to inhibit this activity was determined as: Percentage inhibition=((cpm determined for sample with test compound present−cpm determined for sample with positive control inhibitor)divided by(cpm determined in the presence of vehicle−cpm determined for sample with positive control inhibitor))*100.
as §1, with “JAK1” for “JAK2”

JAK3 = molecular target: T3, JAK3 (Homo sapiens, UniProt P52333); experiment: JAK3 Ki determination assay; conditions: Lineweaver-Burk plot, polyGT substrate, varying ATP
T3 construct: catalytic domain (amino acids 795-1124; catalog number 08-046); purchased Carna Biosciences 08-046
Procedure: For the determination of Ki, different amounts of compound are mixed with the enzyme and the enzymatic reaction is followed as a function of ATP concentration. The Ki is determined by means of double reciprocal plotting of Km vs compound concentration (Lineweaver-Burk plot). JAK3 (Carna Biosciences, 08-046) was used at a final concentration of 20 ng/ml. The substrate was Poly(Glu,Tyr)sodium salt (4:1), MW 20 000-50 000 (Sigma, P0275) The reaction was performed in 25 mM Tris pH 7.5, 0.01% Triton X-100, 0.5 mM EGTA, 2.5 mM DTT, 0.5 mM Na3VO4, 5 mM b-glycerolphosphate, 10 mM MgCl2 with varying concentrations of ATP and compound and stopped by addition of 150 mM phosphoric acid. Measurement of incorporated phosphate into the substrate polyGT was done by loading the samples on a filter plate (using a harvester, Perkin Elmer) and subsequent washing. Incorporated ^33P in polyGT is measured in a Topcount scintillation counter after addition of scintillation liquid to the filter plates (Perkin Elmer).

T1 sequence (O60674 808-1132): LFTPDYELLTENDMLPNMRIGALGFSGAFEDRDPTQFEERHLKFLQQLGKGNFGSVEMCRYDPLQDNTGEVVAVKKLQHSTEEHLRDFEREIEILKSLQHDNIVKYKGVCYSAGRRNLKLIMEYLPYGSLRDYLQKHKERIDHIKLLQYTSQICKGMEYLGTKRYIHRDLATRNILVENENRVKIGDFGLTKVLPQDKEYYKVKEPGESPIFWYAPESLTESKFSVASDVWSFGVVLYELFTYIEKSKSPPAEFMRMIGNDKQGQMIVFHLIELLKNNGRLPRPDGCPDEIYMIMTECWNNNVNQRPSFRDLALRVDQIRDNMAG
T2 sequence (P23458 866-1154): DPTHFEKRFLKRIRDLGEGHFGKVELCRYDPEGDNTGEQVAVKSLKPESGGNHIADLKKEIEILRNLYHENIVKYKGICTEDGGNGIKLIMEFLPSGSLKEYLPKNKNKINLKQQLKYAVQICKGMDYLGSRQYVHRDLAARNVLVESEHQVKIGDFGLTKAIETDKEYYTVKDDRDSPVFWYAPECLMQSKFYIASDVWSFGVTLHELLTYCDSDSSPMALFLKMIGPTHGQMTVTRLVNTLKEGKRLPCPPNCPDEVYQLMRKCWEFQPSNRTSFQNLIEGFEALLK
T3 sequence (P52333 795-1124): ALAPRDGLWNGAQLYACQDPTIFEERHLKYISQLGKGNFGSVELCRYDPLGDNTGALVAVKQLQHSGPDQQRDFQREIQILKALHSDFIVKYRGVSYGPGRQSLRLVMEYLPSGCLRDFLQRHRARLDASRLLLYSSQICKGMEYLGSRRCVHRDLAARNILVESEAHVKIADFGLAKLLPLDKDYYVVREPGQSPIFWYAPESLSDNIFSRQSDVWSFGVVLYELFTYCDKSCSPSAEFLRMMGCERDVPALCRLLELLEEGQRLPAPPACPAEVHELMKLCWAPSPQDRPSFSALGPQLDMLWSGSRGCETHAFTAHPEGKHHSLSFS

| Compound | IC50 [1] | IC50 [2] | Ki (JAK3) |
| --- | --- | --- | --- |
| O=C(Nc1cc2c(-c3ccc(OCc4cccnc4)cc3)cccn2n1)C1CC1 [Compound 8, N-(4-(4-(pyridin-3-ylmethoxy)phenyl)pyrazolo[1,5-a]pyridin-2-yl)cyclopropanecarboxamide] | 0.01 to 100 nM | 0.01 to 100 nM |  |
| CC(=O)Nc1cc2c(-c3ccc(CN4CCN(S(C)(=O)=O)CC4)c(F)c3)cccn2n1 [Compound 21] |  |  | 227 nM |
| O=C(Nc1cc2c(-c3ccc4c(ccn4Cc4ccccc4)c3)cccn2n1)C1CC1 [Compound 3, N-(4-(1-benzyl-1H-indol-5-yl)pyrazolo[1,5-a]pyridin-2-yl)cyclopropanecarboxamide] | 101 to 500 nM | 0.01 to 100 nM |  |
| O=C(NCCOc1ccccc1)c1ccc(-c2cccn3nc(NC(=O)C4CC4)cc23)cc1 [Compound 6, 4-(2-(cyclopropanecarboxamido)pyrazolo[1,5-a]pyridin-4-yl)-N-(2-phenoxyethyl)benzamide] | 0.01 to 100 nM | 0.01 to 100 nM |  |
| O=C(Nc1cc2c(-c3ccc4[nH]ccc4c3)cccn2n1)C1CC1 [Compound 4, N-(4-(1H-indol-5-yl)pyrazolo[1,5-a]pyridin-2-yl)cyclopropanecarboxamide] | 0.01 to 100 nM | 0.01 to 100 nM |  |
| O=C(NCCc1ccccc1)c1ccc(-c2cccn3nc(NC(=O)C4CC4)cc23)cc1 [Compound 5, 4-(2-(cyclopropanecarboxamido)pyrazolo[1,5-a]pyridin-4-yl)-N-phenethylbenzamide] | 0.01 to 100 nM | 0.01 to 100 nM |  |
| O=C(Nc1cc2c(-c3ccc(OCc4ccccc4)cc3)cccn2n1)C1CC1 [Compound 2, N-(4-(4-(benzyloxy)phenyl)pyrazolo[1,5-a]pyridin-2-yl)cyclopropanecarboxamide] | 101 to 500 nM | 0.01 to 100 nM |  |
| COc1ccc(-c2cccn3nc(NC(=O)C4CC4)c(-c4ccccc4)c23)cc1 [Compound 7, N-(4-(4-methoxyphenyl)-3-phenylpyrazolo[1,5-a]pyridin-2-yl)cyclopropanecarboxamide] | > 1000 nM | > 1000 nM |  |
| COc1ccc(-c2cccn3nc(NC(=O)C4CC4)cc23)cc1 [Compound 1, N-(4-(4-methoxyphenyl)pyrazolo[1,5-a]pyridin-2-yl)cyclopropanecarboxamide] | 0.01 to 100 nM | 0.01 to 100 nM |  |
